These results are taken from patent publication EP0068408A1 (priority 1981, dated 1983).

Data set [1] deals with coxsackie virus B1. Also noted: species or system mice. Conditions: mouse, in vivo, po.
In data set [2] the test system is influenza virus B/GL. Briefly: animal or person. The data set is classed as in vivo, mice.
A short description of data set [3]: Acute toxicity in mice (LD50). The data set is classed as in vivo. The conditions noted are these: mouse, in vivo, ddY male mice, suspended in 5% Arabic gum solution, observed for 7 days. As to the method: Experimental Example 7: Acute Toxicity in Mice
Each compound of the invention was suspended in 5% Arabic gum solution and given orally (p.o.) or intraperitoneally (i.p.) to groups of ten ddY male mice weighed from 24 to 26 g at the dosage volume of 10 ml/kg. […] LD50 was determined according to the method of Wilcoxon and Litchfield.

The subject of data set [4] is influenza virus A/WSN. Briefly: animal or person. Conditions: in Mus musculus, 360 h, read-out: Survival rate. Type of data set: in vivo, mice.
Data set [5] has as its system parainfluenza virus type 3. Also noted: species or system mice. The conditions noted are these: mouse, in vivo, po.
[6] abbreviates: unidentified influenza virus, in Mus musculus, po, 360 h, read-out: Survival rate.

Read-outs that look alike come from different tables or passages of the source. Some results are limits rather than exact numbers.

In the case of `CCCCCCCCOC(=O)c1cc(S(N)(=O)=O)c(Cl)cc1Cl` [Compound 37], the Survival rate stood at 50% in data set [1] (300 mg/kg), 80% in data set [1] (1000 mg/kg), 40% in data set [5] (30 mg/kg) and 70% in data set [5] (100 mg/kg). In data set [2] (result in words, Table 7), the “survival rates of the treated groups as compared with the control” value was “extremely excellent activity”. Also, the responders at 30 mg/kg in data set [2] (setting [6]) amounted to 50%; in data set [4] (ip) it was 60%; in data set [4] (po), 50%. Further, the responders at 100 mg/kg in data set [2] (setting [6]) is 80%; in data set [4] (po), 70%. The LD50 at 168 h in data set [3] (ip, i.p., read-out: LD50 value, Intraperitoneal administration) was more than 1000 mg/kg; in data set [3] (po, p.o., read-out: LD50 value, Oral administration), more than 3000 mg/kg. For the same molecule, the responders at 10 mg/kg in data set [4] was determined as 50%.
